The text below walks through data of patent publication US7781410B2 (priority 2006, dated 2010).

In one assay the test system is Sebocytes. Nature of the assay: cells. It is filed as cell-based, human. The note with it: 2,2′-dihydroxychalcone 0.3 μM; Green Tea Extract 0.0 μg/mL.
Turning to `O=C(/C=C/c1ccccc1O)c1ccccc1O` [2,2′-dihydroxy-chalcone], the “% Cholera Toxin Reduction” value was found to be 14.3%.

Staying with this assay, now noted: 2,2′-dihydroxychalcone 1.0 μM; Green Tea Extract 0.0 μg/mL.
As for `O=C(/C=C/c1ccccc1O)c1ccccc1O` [2,2′-dihydroxy-chalcone], the “% Cholera Toxin Reduction” value was found to be 38.2%.

The same assay, now with this note: 2,2′-dihydroxychalcone 3.0 μM; Green Tea Extract 0.0 μg/mL.
On to `O=C(/C=C/c1ccccc1O)c1ccccc1O` [2,2′-dihydroxy-chalcone], for which the “% Cholera Toxin Reduction” value is listed as 50.8%.

Still in this assay, the particulars now being: Homo sapiens, read-out: % Reduction in Lipid Synthesis in Sebocytes [3 uM].
In the case of `COc1cc(O)c(C(=O)/C=C/c2ccc(OC)c(OC)c2)c(O)c1`, the inhibition at 3 µM was found to be 20.5%. The same measure, in the same setting: the value for `O=C1c2ccc(O)cc2OC1Cc1ccc(O)c(O)c1` (centres unmarked) was 26.9%; that for `O=C(/C=C/c1ccccc1O)c1ccccc1O` [drawing 18] was 47.3%; that for `COc1ccc(O)c(C(=O)/C=C/c2cccc(OC)c2OC)c1` was 28.7%. For `COc1ccc(/C=C/C(=O)c2c(O)cc(OC)cc2OC)cc1`, the inhibition at 3 µM is 28.4%.

Take `O=C(/C=C/c1ccc(O)c(O)c1)c1ccc(O)cc1O`: the inhibition at 3 µM was 12.8%. `COc1cc(O)c(C(=O)/C=C/c2ccc(OC)c(O)c2)c(OC)c1`: the inhibition at 3 µM was found to be 25.6%.

With `COc1ccc(C(=O)/C=C/c2ccc(OC)c(OC)c2)c(O)c1`, the inhibition at 3 µM was determined as 12.4%.

The same assay, now with this note: compound at 3 uM; sebocytes.
Regarding `COc1c(/C=C/C(=O)c2ccc(O)cc2)ccc(O)c1O`, the “% Reduction in Lipid Synthesis in Sebocytes [3 uM]” value (from here on “% Reduction in Lipid Synthesis”) is listed as “Not Active”.

Turning to `COc1ccc(C(=O)/C=C/c2cccc(OC)c2OC)c(O)c1`, the “% Reduction in Lipid Synthesis” value was “Not Active”. Still for that read-out and setting: the value for `COc1ccc(/C=C/C(=O)c2c(O)cc(OC)c(OC)c2OC)c(OC)c1` was “Not Active”; that for `COc1cc(OC)c(C(=O)/C=C/c2ccc(OC)c(OC)c2)c(OC)c1` was “Not Active”. Same read-out and setting: the result for `COc1ccc(/C=C/C(=O)c2ccc(O)cc2O)cc1OC` reads “Not Active”. Same read-out and setting: the result for `COc1cc(OC)c(C(=O)/C=C/c2ccc(OC)c(O)c2)c(OC)c1` reads “Not Active”; that for `COc1ccc(/C=C/C(=O)c2cc(OC)ccc2O)c(OC)c1`, “Not Active”; that for `COc1cc(O)c(C(=O)/C=C/c2ccc(O)c(OC)c2)c(OC)c1`, “Not Active”.

As for `COc1cc(OC)c(C(=O)/C=C/c2ccc(O)cc2)c(OC)c1`, the “% Reduction in Lipid Synthesis” value is listed as “Not Active”. The same measure, in the same setting: the value for `COc1ccc(O)c(C(=O)/C=C/c2ccc(OC)c(OC)c2)c1` was “Not Active”; that for `COc1cc(/C=C/C(=O)c2ccc(O)cc2C)cc(OC)c1OC` was “Not Active”. The same measure, in the same setting: the result for `COc1ccc(C(=O)/C=C/c2ccc(OC)cc2OC)c(O)c1` reads “Not Active”. As to `O=C(/C=C/c1ccc(O)c(O)c1)c1ccc(OC2O[C@H](CO)C(O)[C@H](O)C2O)c(O)c1O` (some centres unmarked), the “% Reduction in Lipid Synthesis” value is “Not Active”. Same read-out and setting: the result for `COc1cc(OC)c(C(=O)/C=C/c2ccc(O)cc2OC)c(OC)c1` reads “Not Active”.

For `COc1cc(/C=C/C(=O)c2ccc(O)cc2O)ccc1O`, the “% Reduction in Lipid Synthesis” value is on record as “Not Active”.

For `COc1cccc(/C=C/C(=O)c2ccc(O)cc2O)c1OC`, the “% Reduction in Lipid Synthesis” value was “Not Active”. As to `O=C(/C=C/c1ccc(O)c(O)c1)c1c(O)cc(O)cc1O`, the “% Reduction in Lipid Synthesis” value was “Not Active”.

Consider `COc1ccc(C(=O)/C=C/c2cc(OC)c(OC)c(OC)c2)c(O)c1`, for which the “% Reduction in Lipid Synthesis” value was “Not Active”.
